Calls of active or inactive are those of the source. No cut-off for these calls is given here.
How the values were obtained:
[1] = tested on: Human immunodeficiency virus 1; assay: Antiviral activity against HIV1 3B infected in human MT4 cells assessed as inhibition of virus-induced cytopathic effect by MTT assay; assay type: functional, organism-based; settings: Human immunodeficiency virus 1, 3B
HCT-116 = assay: Cytotoxicity against human HCT116 p53 +/+ and -/- cells after 72 hrs by MTT assay; assay type: cell-based; settings: HCT-116, 72 h
[2] = target: T1, Human immunodeficiency virus type 1 integrase (Human immunodeficiency virus 1, UniProt Q7ZJM1); assay: Inhibition of wild type HIV1 integrase strand transfer activity using 5'-end 32P-labeled linear oligonucleotide as substrate preincubated for 30 mins
T1 sequence (Q7ZJM1 whole entry): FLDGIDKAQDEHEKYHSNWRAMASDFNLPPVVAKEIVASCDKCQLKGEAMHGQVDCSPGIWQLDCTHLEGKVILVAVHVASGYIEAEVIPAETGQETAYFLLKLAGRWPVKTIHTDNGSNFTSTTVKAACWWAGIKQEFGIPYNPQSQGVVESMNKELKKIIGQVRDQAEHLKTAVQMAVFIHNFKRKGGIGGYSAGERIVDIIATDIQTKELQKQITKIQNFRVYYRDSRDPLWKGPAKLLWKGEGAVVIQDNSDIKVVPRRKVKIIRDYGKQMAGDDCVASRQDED

[3] = target: T1, Human immunodeficiency virus type 1 integrase; assay: Inhibition of wild type HIV1 integrase 3'-processing activity using 5'-end 32P-labeled linear oligonucleotide as substrate preincubated for 30 mins
[4] = Inhibition of human Flag-tagged LEDGF interaction to His6-tagged HIV1 integrase expressed in Escherichia coli BL21 (DE3) preincubated for 20 mins measured after 1 hr by AlphaScreen proximity luminescent assay
[5] = Inhibition of human Flag-tagged LEDGF interaction to His6-tagged HIV1 integrase expressed in Escherichia coli BL21 (DE3) at 1000 uM preincubated for 20 mins measured after 1 hr by AlphaScreen proximity luminescent assay

Row | SMILES | IC50 [1] | EC50 (HCT-116) | IC50 [2] | IC50 [3] | IC50 [4] | inhibition [5]
1 | O=C(N/N=C/c1c(O)ccc2ccccc12)c1n[nH]c2c1CCC2 | > 17 µM | < 1 µM | > 100 µM | > 100 µM | 4 µM | –
2 | CN(C)c1ccc(/N=N/c2ccc(Cl)cc2)cc1 | > 100 µM | > 10 µM | > 100 µM | > 100 µM | 2 µM | –
3 | CCN(CC)c1ccc(/C=C2\CCC(/C=N/N3CCN(c4ccc(C)cc4)CC3)=C2N2CCOCC2)cc1 | – | 3.3 µM | – | – | 46 µM | –
4 | COc1ccc(CN2CCCN(c3ccc(S(=O)(=O)Nc4ccccc4)cc3[N+](=O)[O-])CC2)cc1 | 24 µM | > 10 µM | – | – | 34 µM | –
5 | c1ccc(/N=N/C(=N/Nc2ccccc2)c2ccccc2)cc1 | > 5 µM | > 10 µM | > 100 µM | > 100 µM | 20 µM | –
6 | CC/N=c1/scc(-c2ccc(Br)cc2)n1/N=C/c1ccc(O)c(O)c1O | > 35 µM | > 10 µM | – | – | < 25 µM | –
7 | Cc1ccc(N/N=C2\Sc3ccccc3C2=O)cc1 | > 100 µM | 10 µM | > 100 µM | > 100 µM | 6 µM | –
8 | O=C(N/N=C/c1cccnc1)C1=NNC2CCCCC12 (stereo unspecified) | > 20 µM | 5 µM | – | – | > 50 µM | –
9 | CCNc1nc(NCC)nc(C(=O)Nc2ccccc2)n1 | – | – | – | – | 21 µM | –
10 | C=CC/N=c1/scc(-c2ccccc2Br)n1/N=C/c1ccccn1 | > 1 µM | – | > 100 µM | > 100 µM | 23 µM | –
11 | CCN(CC)c1ccc(/C=C2\CCC(/C=N/N=C/c3c(C)[nH]c4ccccc34)=C2N2CCOCC2)cc1 | – | > 10 µM | – | – | 40 µM | –
12 | O=[N+]([O-])c1ccccc1/C=N/N1CCN(Cc2ccccc2)CC1 | – | < 10 µM | – | – | 24 µM | –
13 | COc1ccc(OC)c(/C=N/NC(=O)c2n[nH]c3c2CCC3)c1 | > 40 µM | > 10 µM | > 100 µM | > 100 µM | > 50 µM | –
14 | COC(=O)c1ccc(/N=N/c2ccc([P+](c3ccccc3)(c3ccccc3)c3ccccc3)cc2)cc1 | – | 0.4 µM | – | – | 36 µM | –
15 | Cc1cc(C)nc(N/N=C/c2cccc(O)c2)n1 | – | 4 µM | – | – | > 50 µM | –
16 | CCN(CC)c1ccc(/C=C2\CCC(/C=N/N=C/c3cccnc3)=C2N2CCOCC2)cc1 | > 20 µM | > 10 µM | > 100 µM | > 100 µM | 3 µM | –
17 | C/C(=N\N1CCN(Cc2ccccc2Cl)CC1)c1ccc([N+](=O)[O-])cc1 | > 100 µM | > 10 µM | > 100 µM | > 100 µM | 19 µM | –
18 | O=C(Nn1cnc2ccccc2c1=O)c1cnccn1 | – | – | – | – | 39 µM | –
19 | CC(Oc1ccccc1)C(=O)N/N=C/c1ccccc1O (stereo unspecified) | – | 6.5 µM | – | – | 50 µM | –
20 | CCNc1nc(NCC)nc(C(=O)NN)n1 | > 20 µM | – | < 100 µM | < 100 µM | 6 µM | –

Row | SMILES | IC50 [1] | EC50 (HCT-116) | IC50 [2] | IC50 [3] | IC50 [4] | inhibition [5]
21 | O=C(N/N=C/c1cc(Br)ccc1O)c1cccnc1 | > 3 µM | – | > 100 µM | > 100 µM | 4 µM | –
22 | CC/N=c1/scc(-c2cc(OC)ccc2OC)n1/N=C(\C)c1ccco1 | > 60 µM | > 10 µM | > 100 µM | > 100 µM | 8 µM | –
23 | Cc1nnc(NN)c2c1[nH]c1ccccc12 | > 50 µM | – | > 100 µM | > 100 µM | 5 µM | –
24 | COCCN1C(=O)/C(=C\NNC(=O)c2cc(Cl)ccc2O)C(=O)NC1=S | > 40 µM | 10 µM | 80 µM | 90 µM | 13 µM | –
25 | CC/C(=N\NC(=O)c1ccc(F)cc1)c1cc(Cl)cc(Cl)c1O | – | 2.5 µM | – | – | > 50 µM | –
26 | COc1cc(Br)cc(/C=N/NC(=O)c2ccccn2)c1O | > 22 µM | – | 13 µM | 17 µM | 1.3 µM | –
27 | COc1ccccc1NS(=O)(=O)c1ccc(N/N=C(\C)c2ccccc2Br)c([N+](=O)[O-])c1 | 12 µM | > 10 µM | > 100 µM | > 100 µM | 6 µM | –
28 | O=C(COc1ccc(Cl)cc1Cl)N/N=C/c1cc(Br)ccc1O | – | > 10 µM | > 100 µM | > 100 µM | 50 µM | –
29 | NNC(=O)c1cc(-c2ccc(Cl)cc2)n[nH]1 | – | 10 µM | – | – | > 50 µM | –
30 | Cc1nc2ccccc2c(=O)n1/N=C/c1ccccc1O | – | 10 µM | – | – | > 50 µM | –
31 | COc1ccc(O)c(/C=N/NC(=O)c2sc3ccccc3c2O)c1 | – | 8 µM | > 100 µM | > 100 µM | 38 µM | –
32 | C/C(=N\Nc1ccc(S(=O)(=O)Nc2ccccc2)cc1[N+](=O)[O-])c1cc(O)ccc1O | > 28 µM | – | > 100 µM | > 100 µM | 13 µM | –
33 | Cc1nnc(NNC(=O)c2ccccc2)c2c1[nH]c1ccccc12 | – | – | – | – | > 50 µM | –
34 | COc1ccccc1N1CCN(/N=C/c2ccc(Cl)c([N+](=O)[O-])c2)CC1 | > 100 µM | > 10 µM | > 100 µM | > 100 µM | 21 µM | –
35 | O=C(CP(=O)(c1ccccc1)c1ccccc1)N/N=C/c1cc(Br)cc(Br)c1O | – | 3.3 µM | 100 µM | 100 µM | 50 µM | –
36 | Oc1ccc(/C=N/N2CCN(c3ccccc3)CC2)cc1O | – | > 10 µM | 31 µM | 69 µM | 16 µM | –
37 | Cc1sc2ncnc(N/N=C/c3c(O)ccc4ccccc34)c2c1C | – | < 1 µM | 52 µM | 77 µM | 6 µM | –
38 | COc1c(Cl)cc(Cl)cc1/C=N/NC(=O)c1ccncc1 | – | – | > 100 µM | > 100 µM | > 50 µM | –
39 | FC(F)(F)c1ccccc1/C=N/N1CCN(Cc2ccccc2)CC1 | – | > 10 µM | > 100 µM | > 100 µM | 35 µM | –
40 | COc1cc(/C=N/Nc2ccc(S(=O)(=O)Nc3ccccc3C(=O)O)cc2[N+](=O)[O-])ccc1O | > 10 µM | – | > 100 µM | > 100 µM | 25 µM | –

Row | SMILES | IC50 [1] | EC50 (HCT-116) | IC50 [2] | IC50 [3] | IC50 [4] | inhibition [5]
41 | O=C(N/N=C/c1c(O)ccc2ccccc12)c1ccncc1 | – | – | > 100 µM | > 100 µM | 6 µM | –
42 | O=C(N/N=C/c1ccc(Cl)cc1Cl)c1n[nH]c2c1CCC2 | – | < 1 µM | – | – | > 50 µM | –
43 | Cc1occc1C(=O)NN/C=C1/C(=O)N(c2ccccc2Cl)C(=O)c2ccccc21 | – | 6.5 µM | 75 µM | 90 µM | 8 µM | –
44 | Cc1nnc(Cl)c2c1[nH]c1ccccc12 | – | – | – | – | > 50 µM | –
45 | O=C1C(O)=Cc2ccccc2/C1=N\Nc1ccc(Cl)cc1 | > 40 µM | – | 100 µM | > 100 µM | 3 µM | –
46 | NNC(=O)c1ccncc1 | – | – | – | – | – | inactive
47 | O=C(N/N=C/c1ccc(Cl)cc1Cl)c1cnccn1 | – | > 10 µM | > 100 µM | > 100 µM | > 50 µM | –
48 | O=C(N/N=C/c1ccccc1O)c1cnccn1 | > 40 µM | 9 µM | > 100 µM | > 100 µM | 0.4 µM | –
49 | CC(C)c1ccc(/C=N/N2CCN(Cc3ccccc3)CC2)cc1 | – | > 10 µM | – | – | 50 µM | –
50 | O=C(N/N=C/c1ccc(O)cc1O)c1ccncc1 | – | 4 µM | > 100 µM | > 100 µM | 4 µM | –
51 | CC(=O)c1ccc(/N=N/c2ccc(C[P+](c3ccccc3)(c3ccccc3)c3ccccc3)cc2)cc1 | – | 0.5 µM | > 100 µM | > 100 µM | 12 µM | –
52 | O=C(N/N=C/c1cc(Br)ccc1O)C1=NNC2CCCCC12 (stereo unspecified) | – | 5 µM | 15 µM | 29 µM | 4 µM | –
53 | Oc1ccc(Br)cc1/C=N/Nc1cccc2cccnc12 | – | – | > 100 µM | > 100 µM | > 50 µM | –
54 | Cc1[nH]n(-c2ccccc2)c(=O)c1/C=N/Nc1ccc([N+](=O)[O-])cc1 | – | > 10 µM | – | – | 6 µM | –
55 | Cn1cccc1/C=N/N1CCN(Cc2ccccc2)CC1 | – | > 10 µM | > 100 µM | > 100 µM | 32 µM | –
56 | CCOc1cccc(/C=N/NC(=O)c2n[nH]c3c2CCC3)c1O | > 4 µM | 6 µM | > 100 µM | > 100 µM | 2 µM | –
57 | NNC(=O)Cn1cnc(-c2ccc(F)cc2)c1 | – | – | – | – | > 50 µM | –
58 | COCC/N=c1/scc(-c2cccs2)n1/N=C/c1cc(Br)c(O)c(OC)c1 | > 15 µM | > 10 µM | > 100 µM | > 100 µM | 14 µM | –
59 | C/C(=N\NC(=O)C1CCCCC1)c1ccccc1O | > 20 µM | > 10 µM | – | – | 93 µM | –
60 | O=C(N/N=C/c1c(O)ccc2ccccc12)c1cc[nH]n1 | > 14 µM | 1.5 µM | > 100 µM | > 100 µM | 7 µM | –
